Measurements as given in US7514434B2, “Heterocyclic compounds having an oxadiazole moiety and hydro isomers thereof” (Rigel Pharmaceuticals, Inc., priority 2004, dated 2009).

System: HCV replicon (5-2 Luc replicon-comprising cells)
Assay: HCV replicon assay (luciferase)
Type: cell-based
Conditions: 5-2 Luc replicon cells, 24 hours with compound; read-out: Replicon IC50 (50% reduction in luciferase activity)
Description: In one embodiment, the inhibitory activity of the compounds can be confirmed in a replicon assay that assesses the ability of a test compound to block or inhibit HCV replication in replicon cells. One example of a suitable replicon assay is the liver cell-line Huh 7-based replicon assay described in Lohmann et al., 1999, Science 285:110-113. A specific example of this replicon assay which utilizes luciferase translation is provided in the Examples Section. In one embodiment of this assay, the amount of test compound that yields a 50% reduction in translation as compared to a control cell (IC50) may be determined.
The inhibitory activity of certain exemplary compounds of the invention was confirmed using an HCV replicon assay. The HCV replicon can include such features as the HCV 5′ untranslated region including the HCV IRES, the HCV 3′ untranslated region, selected HCV genes encoding HCV polypeptides, selectable markers, and a reporter gene such as luciferase, GFP, etc. In the assay, actively dividing 5-2 Luc replicon-comprising cells (obtained from Ralf Bartenschlager; see Lohmann et al., 1999, Science 285:110-113) were seeded ata density of between about 5,000 and 7,500 cells/well onto 96 well plates (about 90 μl of cells per well) and incubated at 37° C. and 5% CO2 for 24 hours. Then, the test compound (in a volume of about 10 μl) was added to the wells at various concentrations and the cells were incubated for an additional 24 hours before luciferase assay. Briefly, the Bright-Glo reagent was diluted 1:1 with PBS and 100 μl of diluted reagent was added to each well. After 5 min of incubation at room temperature, luciferin emission was quantified with a luminometer. In this assay, the amount of test compound that yielded a 50% reduction in luciferase activity (IC50) was determined.

SMILES	IC50
CC(=O)N1CCN(c2cccc(Cl)c2-c2cc(-c3ccc(-c4noc(C(Cl)Cl)n4)c(Cl)c3)on2)CC1 [5-Dichloromethyl-3-[4-[3′-[2′-chloro-6′-(N-acetyl-4-piperazinyl)phenyl]-5′-isoxazolyl]-2-chlorophenyl]-1,2,4-oxadiazole]	> 10 µM
CC(=O)N1CCN(c2cccc(Cl)c2-c2cc(-c3ccc(-c4noc(C(Cl)Cl)n4)c(F)c3)on2)CC1 [5-Dichloromethyl-3-[4-[3′-[2′-chloro-6′-(N-acetyl-4-piperazinyl)phenyl]-5′-isoxazolyl]-2-fluorophenyl]-1,2,4-oxadiazole]	≤ 10 µM
COc1cccc(C(F)(F)F)c1-c1cc(-c2cccc(-c3noc(C(Cl)Cl)n3)c2)on1 [(I) R2=CF3, R6=OMe, 5-Dichloromethyl-3-[3-[3′-(2′-methoxy-6′-trifluoromethylphenyl)-5′-isoxazolyl]phenyl]-1,2,4-oxadiazole]	> 10 µM
Clc1cccc(Cl)c1-c1cc(-c2cccc(-c3noc(C(Cl)Cl)n3)c2)on1 [(I) R2=Cl, R6=Cl, 5-Dichloromethyl-3-[3-[3′-(2′,6′-dichlorophenyl)-5′-isoxazolyl]phenyl]-1,2,4-oxadiazole]	≤ 10 µM
Fc1cc(-c2cc(-c3c(Cl)cccc3Cl)no2)ccc1-c1noc(C(Cl)Cl)n1 [(I) R2=Cl, R6=Cl, R8=F, 5-Dichloromethyl-3-[4-[3′-(2′,6′-dichlorophenyl)-5′-isoxazolyl]-6-fluorophenyl]-1,2,4-oxadiazole]	≤ 10 µM
Clc1cccc(Cl)c1-c1cc(-c2ccccc2-c2noc(C(Cl)Cl)n2)on1 [(II) R2=Cl, R6=Cl, 5-Dichloromethyl-3-[2-[3′-(2′,6′-dichlorophenyl)-5′-isoxazolyl]phenyl]-1,2,4-oxadiazole]	≤ 10 µM
Fc1cccc(C(F)(F)F)c1-c1cc(-c2ccc(-c3noc(C(Cl)Cl)n3)cc2)on1 [(III) R2=CF3, R6=F, 5-Dichloromethyl-3-[4-[3′-(2′-fluoro-6′-trifluoromethylphenyl)-5′-isoxazolyl]phenyl]-1,2,4-oxadiazole]	≤ 10 µM
COc1cccc(C(F)(F)F)c1-c1cc(-c2ccc(-c3noc(C(Cl)Cl)n3)cc2)on1 [(III) R2=CF3, R6=OMe, 5-Dichloromethyl-3-[4-[3′-(2′-methoxy-6′-trifluoromethylphenyl)-5′-isoxazolyl]phenyl]-1,2,4-oxadiazole]	≤ 10 µM
Clc1cccc(Cl)c1-c1cc(-c2ccc(-c3noc(C(Cl)Cl)n3)cc2)on1 [(III) R2=Cl, R6=Cl, 5-Dichloromethyl-3-[4-[3′-(2′,6′-dichlorophenyl)-5′-isoxazolyl]phenyl]-1,2,4-oxadiazole]	≤ 10 µM
Clc1cc(-c2cc(-c3c(Cl)cccc3Cl)no2)ccc1-c1noc(C(Cl)Cl)n1 [(III) R2=Cl, R6=Cl, R8=Cl, 5-Dichloromethyl-3-[4-[3′-(2′,6′-dichlorophenyl)-5′-isoxazolyl]-2-chlorophenyl]-1,2,4-oxadiazole]	> 10 µM
Cc1cc(-c2noc(C(Cl)Cl)n2)ccc1-c1cc(-c2c(Cl)cccc2Cl)no1 [(III) R2=Cl, R6=Cl, R10=Me, 5-Dichloromethyl-3-[4-[3′-(2′,6′-dichlorophenyl)-5′-isoxazolyl]-3-methylphenyl]-1,2,4-oxadiazole]	≤ 10 µM
Fc1cccc(Cl)c1-c1cc(-c2ccc(-c3noc(C(Cl)Cl)n3)cc2)on1 [(III) R2=Cl, R6=F, 5-Dichloromethyl-3-[4-[3′-(2′-chloro-6′-fluorophenyl)-5′-isoxazolyl]phenyl]-1,2,4-oxadiazole]	≤ 10 µM
Clc1cccc(Cl)c1-c1cc(-c2ccnc(-c3noc(C(Cl)Cl)n3)c2)on1 [(Ia) R2=Cl, R6=Cl, 5-Dichloromethyl-3-[4-[3′-(2′,6′-dichlorophenyl)-5′-isoxazolyl]-4-pyridyl]-1,2,4-oxadiazole]	> 10 µM

System: HCV nonstructural protein NS5A or NS3
Assay: Quantitative Western blot assay in 9-13 replicon cells
Type: cell-based
Conditions: second symbol of column Replicon/Western, 48 hours with compound, read-out: Western IC50 (50% reduction in the amount of NS5A or NS3 protein)
Description: Alternatively, the inhibitory activity of the compounds can be confirmed using a quantitative Western immunoblot assay utilizing antibodies specific for HCV non-structural proteins, such as NS3, NS4A NS5A and NS5B. In one embodiment of this assay, replicon cells are treated with varying concentrations of test compound to determine the concentration of test compound that yields a 50% reduction in the amount of a non-structural protein produced as compared to a control sample (IC50). A single non-structural protein may be quantified or multiple non-structural proteins may be quantified. Antibodies suitable for carrying out such immunoblot assays are available commercially (e.g., from BIODESIGN International, Saco, Me.).
Certain exemplary compounds of the invention were also tested for their ability to inhibit HCV replication using a quantitative Western blot analysis with antibodies specific for the HCV nonstructural protein NS5A or NS3. Actively dividing 9-13 replicon cells were seeded into 6-well plates at a density of 1×10^5 cells/well in a volume of 2 ml/well and incubated at 37° C. and 5% CO2 for 24 hours. Various concentrations of test compounds (in a volume of 10 ul) were added to the wells and the cells incubated for another 48 hours. […] The membrane was then soaked in substrate solution (Pierce) and exposed to a film or quantified using an imager. […]

SMILES	IC50
Clc1cccc(Cl)c1-c1cc(-c2cccc(-c3noc(C(Cl)Cl)n3)c2)on1 [(I) R2=Cl, R6=Cl, 5-Dichloromethyl-3-[3-[3′-(2′,6′-dichlorophenyl)-5′-isoxazolyl]phenyl]-1,2,4-oxadiazole]	≤ 10 µM
